Patent US7981913B2, “Isophthalates as beta-secretase inhibitors” (Bristol-Myers Squibb Company, priority 2005, dated 2011)

Biological target: T1, BACE1 enzyme (Homo sapiens, UniProt P56817)
T1 construct: The HEK293-9B.A1 cell line, which overexpresses the BACE1 enzyme, was derived from HEK293 cells; endogenous in cells; washed 48,000 x g membrane pellet / cell homogenate
Assay: Radioligand displacement assay with a radiolabeled BACE inhibitor on HEK293-9B.A1 cell homogenate
Format: binding
Details: displacement of 1 nM tritiated radioligand, HEK293-9B.A1 homogenate, pH 5.0, 1.5 hr at 25° C.; read-out: Activity Rating (based on IC50 values)
Description: There are a number of methods by which inhibitors of the BACE enzyme can be identified experimentally. The enzyme can be obtained from membrane samples from natural tissues or cultured cells or can be expressed recombinantly in a host cell by well known methods of molecular biology. The whole enzyme or a portion thereof can be expressed, for example, in bacterial, insect or mammalian cells to obtain a catalytically active enzyme species. The enzymatic activity and/or ligand binding capability of the enzyme can be assessed within these membrane samples, or the enzyme can be purified to varying extents. As an illustrative example, the nucleic acid sequence encoding the pro and catalytic domains of human BACE can be appended on the 5′ end with an untranslated and signal sequence from the gene for acetylcholinesterase, and on the 3′ end with a sequence encoding a poly-histidine tag. This cDNA can then be expressed in Drosophila melanogaster S2 cells in which the signal and pro sequences of the transcribed/translated protein are removed by cellular proteases and the catalytic domain, appended by a C-terminal poly-histidine tag, is secreted out into the cellular medium. The enzyme can then be purified from the culture medium by nickel affinity chromatography by methods well known to those trained in the art [Mallender, W. et al., (2001) “Characterization of recombinant, soluble beta-secretase from an insect cell expression system.” Mol. Pharmacol. 59: 619-626]. Similar strategies for expressing and purifying various forms of BACE in bacterial, mammalian and other cell types would be known to one skilled in the art. A preferred method for determining the potency of a test compound in binding to the BACE enzyme is by monitoring the displacement of a suitable radioligand.
Radioligand displacement assays with a radiolabeled BACE inhibitor (WO 2004 013098, compound 3, where the methoxy group is substituted for C(^3H)3) were carried out using standard methods (Keen, M. (1999) in Receptor Binding Techniques (Walker, J. M. ed) p. 106 Humana Press, Totowa, N.J.). The HEK293-9B.A1 cell line, which overexpresses the BACE1 enzyme, was derived from HEK293 cells (Simmons, N. L. (1990) A cultured human renal epithelioid cell line responsive to vasoactive intestinal peptide. Exp. Physiol. 75:309-19.) by RAGE™ (Harrington, J. J. et al. (2001) Creation of genome-wide protein expression libraries using random activation of gene expression. Nat. Biotechnol. 19:440-5; U.S. Pat. Nos. 6,410,266 and 6,361,972). […]

T1 sequence (P56817 46-501): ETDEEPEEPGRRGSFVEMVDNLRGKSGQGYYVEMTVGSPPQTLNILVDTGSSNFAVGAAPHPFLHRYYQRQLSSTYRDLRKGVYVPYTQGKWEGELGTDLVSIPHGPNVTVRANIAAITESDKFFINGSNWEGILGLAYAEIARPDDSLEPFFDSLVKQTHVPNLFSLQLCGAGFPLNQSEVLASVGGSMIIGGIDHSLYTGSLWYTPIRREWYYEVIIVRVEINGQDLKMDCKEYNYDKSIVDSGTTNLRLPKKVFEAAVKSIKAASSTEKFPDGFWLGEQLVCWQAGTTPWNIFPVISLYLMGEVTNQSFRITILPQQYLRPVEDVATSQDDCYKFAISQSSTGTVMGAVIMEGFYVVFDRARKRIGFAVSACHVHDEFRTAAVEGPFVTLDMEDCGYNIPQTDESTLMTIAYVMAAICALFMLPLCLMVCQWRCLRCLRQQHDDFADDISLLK

| Structure (SMILES) | IC50 [nM] |
| --- | --- |
| CCCN(CCC)C(=O)c1cc(C(=O)N[C@@H](Cc2ccccc2)[C@H](O)[C@H]2C[C@@H](S(=O)(=O)CCC)CN2)cc(-c2ncco2)c1 [Example 17, N^1-((1R,2S)-1-hydroxy-3-phenyl-1-((2R,4R)-4-(propylsulfonyl)pyrrolidin-2-yl)propan-2-yl)-5-(oxazol-2-yl)-N^3,N^3-dipropylisophthalamide] | < 100 |
| CCCO[C@H]1CN[C@@H]([C@@H](O)[C@H](Cc2cc(F)cc(F)c2)NC(=O)c2cc(C(=O)N3CCC[C@@H]3COC)cc(-c3ncco3)c2)C1 [Example 11, N-((1R,2S)-3-(3,5-difluorophenyl)-1-hydroxy-1-((2R,4R)-4-propoxypyrrolidin-2-yl)propan-2-yl)-3-((R)-2-(methoxymethyl)pyrrolidine-1-carbonyl)-5-(oxazol-2-yl)benzamide] | < 100 |
| CCCO[C@H]1CN[C@@H]([C@@H](O)[C@H](Cc2cc(F)cc(F)c2)NC(=O)c2cc(C(=O)N(CCC)CCC)cc(-c3ncco3)c2)C1 [Example 12, N^1-((1R,2S)-3-(3,5-difluorophenyl)-1-hydroxy-1-((2R,4R)-4-propoxypyrrolidin-2-yl)propan-2-yl)-5-(oxazol-2-yl)-N^3,N^3-dipropylisophthalamide] | < 100 |
| CCCCN(C)C(=O)c1cccc(C(=O)N[C@@H](Cc2cc(F)cc(F)c2)[C@H](O)[C@H]2CC(c3ccccc3)CN2)c1 (stereo partly drawn) [Example 7, N^1-butyl-N^3-((1R,2S)-3-(3,5-difluorophenyl)-1-hydroxy-1-((2R)-4-phenylpyrrolidin-2-yl)propan-2-yl)-N^1-methylisophthalamide] | 100 to 1000 |
